Source: patent US20080027076A1, “Pyrimidines With Tie2 (Tek) Activity” (ASTRAZENECA AB, priority 2003, published 2008)

Columns and labels:
[1] = target: T1, Tie2 receptor tyrosine kinase (Homo sapiens, UniProt Q02763); test: In vitro receptor tyrosine kinase inhibition assay (ELISA based, Test (a)); assay type: biochemical; conditions: recombinant human Tie2 kinase domain lysate, synthetic peptide substrate
T1 construct: consist of only the intracellular portion C-terminal portion of the respective receptor, within which is found the kinase domain; made in house; host or cells: baculovirus/Sf21 insect cells (cleared lysate used)
T1 sequence (Q02763 770-1124 limits assumed): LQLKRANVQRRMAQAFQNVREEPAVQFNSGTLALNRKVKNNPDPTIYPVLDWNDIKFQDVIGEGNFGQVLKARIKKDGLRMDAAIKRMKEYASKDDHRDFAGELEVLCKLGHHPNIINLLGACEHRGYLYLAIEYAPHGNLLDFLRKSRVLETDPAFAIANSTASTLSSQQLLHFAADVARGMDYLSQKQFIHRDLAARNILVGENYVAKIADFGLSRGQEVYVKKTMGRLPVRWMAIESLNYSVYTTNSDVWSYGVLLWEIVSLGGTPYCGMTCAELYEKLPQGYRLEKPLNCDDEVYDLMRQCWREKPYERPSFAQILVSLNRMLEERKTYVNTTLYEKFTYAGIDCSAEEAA
Experimental: a. In Vitro Receptor Tyrosine Kinase Inhibition Assay
To test for inhibition of Tie2 receptor tyrosine kinase, compounds are evaluated in a non-cell based protein kinase assay by their ability to inhibit the protein kinase enzyme phosphorylation of a tyrosine containing polypeptide substrate in an ELISA based microtitre plate assay. In this particular case, the assay was to determine the IC50, for three different recombinant human tyrosine kinases Tie2, KDR and Flt.
To facilitate production of the tyrosine kinases, recombinant receptor genes were produced using standard molecular biology cloning and mutagenesis techniques. These recombinant proteins fragments encoded within these genes consist of only the intracellular portion C-terminal portion of the respective receptor, within which is found the kinase domain. The recombinant genes encoding the kinase domain containing fragments were cloned and expressed in standard baculovirus/Sf21 system (or alternative equivalent). […]
Constitutive kinase activity of these recombinant proteins was determined by their ability to phosphorylate a synthetic peptide (made up of a random co-polymer of Glutamic Acid, Alanine and Tyrosine in the ratio of 6:3:1). […]
The immobilised phospho-peptide product of the reaction was detected by immunological methods. […] Following extensive washing with PBS-T, HRP activity in each well of the plate was measured colorimetrically using 22′-Azino-di-[3-ethylbenzthiazoline sulfonate (6)] diammonium salt crystals ABTS (Sigma P4922-prepared as per manufactures instructions) as a substrate incubated for 30-45 minutes to allow colour development, before 100 ul of 1M H2SO4 was added to stop the reaction.
Quantification of colour development and thus enzyme activity was achieved by the measurement of absorbance at 405 nm on a Molecular Devices ThermoMax microplate reader. Kinase inhibition for a given compound was expressed as an IC50 value. […] The range of phosphorylation was calculated from the positive (vehicle plus ATP) and negative (vehicle minus ATP) control values.

[2] = target: T2, Tie2 receptor (Homo sapiens, UniProt Q02763); test: Cellular Tie2 autophosphorylation assay (Test (b)); assay type: cell-based; conditions: Ang1 ligand stimulated cellular Tie2 receptor, e.g. EA.hy926/B3 cells; read-out: IC50 Test (b): Inhibition of autophosphorylation of Tie2 receptor tyrosine kinase
T2 construct: one can use natural cell lines or primary cells which are known to express the receptor of choice; endogenous in cells; host or cells: EA.hy926/B3 cells
T2 sequence (Q02763 23-1124): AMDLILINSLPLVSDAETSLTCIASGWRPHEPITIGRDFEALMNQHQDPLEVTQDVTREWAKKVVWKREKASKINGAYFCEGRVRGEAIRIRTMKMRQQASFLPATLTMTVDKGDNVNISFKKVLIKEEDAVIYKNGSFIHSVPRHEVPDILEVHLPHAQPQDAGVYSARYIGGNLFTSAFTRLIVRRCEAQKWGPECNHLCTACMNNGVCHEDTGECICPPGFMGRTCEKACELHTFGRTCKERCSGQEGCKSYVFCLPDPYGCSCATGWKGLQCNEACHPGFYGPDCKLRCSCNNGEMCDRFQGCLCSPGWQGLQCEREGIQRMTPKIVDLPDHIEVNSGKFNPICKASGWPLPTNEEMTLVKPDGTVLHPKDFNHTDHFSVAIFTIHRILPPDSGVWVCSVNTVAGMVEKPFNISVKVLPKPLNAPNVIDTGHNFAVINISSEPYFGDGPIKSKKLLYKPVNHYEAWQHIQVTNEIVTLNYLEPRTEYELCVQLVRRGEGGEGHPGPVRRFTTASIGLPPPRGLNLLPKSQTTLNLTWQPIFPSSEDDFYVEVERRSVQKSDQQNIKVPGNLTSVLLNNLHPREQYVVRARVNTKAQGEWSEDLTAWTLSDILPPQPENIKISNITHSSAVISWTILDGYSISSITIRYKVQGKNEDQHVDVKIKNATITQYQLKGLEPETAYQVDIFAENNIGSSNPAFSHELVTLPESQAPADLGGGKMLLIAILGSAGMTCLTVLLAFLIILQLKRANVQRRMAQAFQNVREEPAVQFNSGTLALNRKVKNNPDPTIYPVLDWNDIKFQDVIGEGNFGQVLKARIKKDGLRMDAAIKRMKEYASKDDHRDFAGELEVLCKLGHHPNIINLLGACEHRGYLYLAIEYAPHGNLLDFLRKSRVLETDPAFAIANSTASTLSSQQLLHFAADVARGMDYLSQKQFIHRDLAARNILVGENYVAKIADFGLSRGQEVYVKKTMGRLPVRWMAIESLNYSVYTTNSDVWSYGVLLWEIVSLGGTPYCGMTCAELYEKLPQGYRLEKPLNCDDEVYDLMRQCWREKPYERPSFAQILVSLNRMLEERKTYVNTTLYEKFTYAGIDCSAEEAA
Description: b. Cellular Tie2 Autophosphorylation Assay
This assay is based on measuring the ability of compounds to inhibit autophosphorylation of the Tie2 receptor which normally leads to the production of “activated” receptor that in turn initiates the particular signal transduction pathways associated with the receptor function.
Autophosphorylation can be achieved by a number of means. It is known that expression of recombinant kinase domains in baculoviral systems can lead to the production of phosphorylated and activated receptor. It is also reported that over expression of receptors in recombinant cell lines can itself lead to receptor autophosphorylation in the absence of the ligand (Heldin C-H. 1995 Cell : 80, 213-223; Blume-J. P, Hunter T. 2001 Nature: 411, 355-65). Furthermore, there are numerous literature examples in which chimaeric receptors have been constructed. In these cases the natural, external cell surface domain of the receptor has been replaced with that of a domain which is known to be readily dimerised via the addition of the appropriate ligand (e.g. TrkA-Tie2/NGF ligand (Marron, M. B., et al., 2000 Journal of Biological Chemistry: 275:39741-39746) or C-fms-Tie-1/CSF-1 ligand (Kontos, C. D., et al., 2002 Molecular and Cellular Biology: 22, 1704-1713). Thus when the chimaeric receptor expressed in a host cell line and the respective ligand is added, this induces autophosphorylation of the chimeric receptor's kinase domain. This approach has the advantage of often allowing a known (and often easily obtained) ligand to be used instead of having to identify and isolate the natural ligand for each receptor of interest.
Naturally if the ligand is available one can use natural cell lines or primary cells which are known to express the receptor of choice and simply stimulate with ligand to achieve ligand induced phosphorylation. […]

IC50 [1] [µM]	IC50 [2] [µM]	SMILES
0.879	5.56	CC(C)(C)c1nnc(NC(=O)Nc2ccc(C#Cc3c(N)ncnc3N)cc2)s1 [Example 11, N-(5-tert-butyl-1,3,4-thiadiazol-2-yl)-N′-{4-[(4,6-diaminopyrimidin-5-yl)ethynyl]phenyl}urea]
2.85	0.351	Cc1cc(NC(=O)Nc2ccc(C#Cc3c(N)ncnc3N)cc2)sn1 [Example 12, N-{4-[(4,6-diaminopyrimidin-5-yl)ethynyl]phenyl}-N′-(3-methylisothiazol-5-yl)urea]
2.14	3.54	Cc1cc(NC(=O)Nc2cccc(C#Cc3c(N)ncnc3N)c2)on1 [Example 19, N-{3-[(4,6-diaminopyrimidin-5-yl)ethynyl]phenyl}-N′-(3-methylsoxazol-5-yl)urea]
